Read-outs that look alike come from different tables or passages of the source.
Key:
[1] = test system: ovarian, breast, lung, and prostatic cancer and melanoma; conditions: cited from earlier work
[2] = human, in vivo; cited from earlier work
U373 = test: cells; conditions: Homo sapiens, U373 MG, read-out: ID90
[3] = cell-culture medium; cited from earlier work
9L = test: Intracranial local drug delivery by polymer implant in rat glioma model, median survival (Table 1 summary); conditions: in vivo
[4] = maintenance of sufficient systemic levels; cited from earlier work
intracranial gliomas = conditions: i.p.; cited from earlier work
[5] = Intracerebral distribution of paclitaxel from polymer implant; format: in vivo, rat; conditions: for time course of paclitaxel brain concentration: 30 days after implant
Description: Animals. Male Fischer 344 rats weighing 200-225 g were obtained from Harlan Sprague-Dawley, Inc. (Indianapolis, Ind.), kept in standard animal facilities with 4 rats/cage, and given free access to Certified Rodent Chow No. 5002 (Ralston Purina Co., St. Louis, Mo.) and to Baltimore city water.
Preparation of the paclitaxel loaded polymer. Polymer discs containing labeled paclitaxel were prepared as above, except that a small amount of ^3 H-labeled paclitaxel (specific activity, 19.3 Ci/mmol; National Cancer Institute) in toluene was added to the initial solution of polymer and paclitaxel in methylene chloride. The polymer-paclitaxel mixture was then dried in a vacuum desiccator and pressed into discs using a table vise calibrated to form a pellet.
Paclitaxel-polymer implantation. The procedure for polymer implantation in the rat has been described by Tamargo, R. J., et al. (Cancer Res. 53:329-333 (1993)), the teachings of which are incorporated herein by reference. Briefly, the heads of anesthetized rats were shaved and prepared aseptically. The skull was exposed with a midline incision, and a 3-mm burr hole was drilled through the skull 5 mm posterior and 3 mm lateral to the bregma. The dura was incised with a microsurgical knife (Edward Weck and Co., Inc., Research Triangle Park, N.C.), and the polymer disc was inserted into the brain parenchyma. The wound was irrigated and closed with surgical clips (Clay Adams, Parsippany, N.J.).
Protocol for intracerebral drug distribution. Twelve rats were given implants of 10-mg discs containing 40% paclitaxel by weight and 0.60 μCi/mg disc weight. At 3, 9, 17, and 30 days postimplantation, groups of 3 rats each were euthanized. The skull was opened and the brain exposed. The polymer disc was removed from the brain in situ. The brain was then removed from the skull and snap frozen in heptane over dry ice. The brain was sectioned in the midline into implant and contralateral hemispheres. Each hemisphere was sectioned coronally at 2-mm intervals by using a tissue blade grid consisting of individual tissue blades arranged in parallel separated by 2-mm metal spacers. Each section was weighed, dissolved in 15 ml Solvable homogenizing solution (New England Nuclear Dupont, Boston, Mass.), and combined with 15 ml Atomlight™ scintillation mixture (New England Nuclear Dupont). The brain samples were counted on a Beckman liquid scintillation counter. Raw counts were corrected for quenching and converted to dpm using a linear regression based on a series of quenched standards.
To convert dpm/mg tissue to paclitaxel concentration, a second experiment was performed. Four rats were given implants of 40% loaded polymer discs with 0.39 μCi/mg. One rat each was sacrificed at 3, 9, 17, and 30 days. The brain was removed and frozen as above. A 2-mm coronal section was taken through the site of the polymer implant. The section was minced and extracted with ethanol. The ethanol fraction was divided in two. […] The Rf value for the paclitaxel was determined and each lane cut into 4 sections: A. origin; B, origin to paclitaxel spot; C. paclitaxel spot; and D. paclitaxel spot to solvent front. The chromatography strips were combined with Atomlight™ mixture and counted in a liquid scintillation counter. […] To determine the efficiency of extraction, the remaining half of the original extract was combined with mixture and counted, and the residual brain tissue was homogenized and counted as above. […]

SMILES: CC(=O)O[C@H]1C(=O)[C@@]2(C)[C@H]([C@H](OC(=O)c3ccccc3)[C@]3(O)C[C@H](OC(=O)[C@H](O)[C@@H](NC(=O)c4ccccc4)c4ccccc4)C(C)=C1C3(C)C)[C@]1(OC(C)=O)CO[C@@H]1C[C@@H]2O [paclitaxel]
- concentrations cytotoxic in vitro [1]: nanomolecular concentrations
- clearance [2]: extensive non-renal clearance
- IC90 (U373; 1 h): 280 nM
- IC90 (U373; 24 h): 29 nM
- IC90 (U373): 7.2 nM
- hydrolysis to inactive compounds [3]: less than 10%
- % increase survival (9L): 215%
- Median survival in days, Rx group (9L): 61.5
- systemic toxicity [4]: severe, in some cases "life-threatening" toxicity
- increased survival from systemic intraperitoneal injections (intracranial gliomas): no increased survival
- time course of paclitaxel brain concentration [5]: still constant or rising throughout the rat brain 30 days after implant
- time course of paclitaxel brain concentration ([5]; listed as Paclitaxel): increased slightly during the 30 days
- duration of elevated paclitaxel concentration in brain ([5]; after implantation in the rat brain): at least one month
- raw counts tissue bound ([5]; brain, each time point): 31±3%
- raw counts representing parent drug ([5]; brain, each time point, ± standard error of the mean): approximately 56±3%
